Results: US20230346705A1, “NANOPARTICLES FOR TREATING OR PREVENTING A CARDIOMYOPATHY AND ANTHRACYCLINE-CYTOTOXICITY, AND THEIR ADMINISTRATION AS AN AEROSOL” (INSTITUT NATIONAL DE LA SANTE ET DE LA RECHERCHE MEDICALE …, priority 2020, published 2023)

Columns and labels:
H9C2 cells [1] = test: Autophagosomes/autolysosomes visualization (GFP-LC3, RFP-GFP-LC3) in H9C2; assay type: cell-based, Rat
Description: Autophagosomes were visualized in GFP-LC3-transduced cells. Autophagic flux was evaluated in RFP-GFP-LC3-transduced cells. Representative images were taken with an epifluorescence microscope (DM600 microscope, Leica) and quantification of yellow puncta (autophagosomes) and red puncta (autolysosomes) was performed using Image J software.

H9C2 cells [2] = test: Lysosomal pH (Acridine Orange, Lysosensor) in H9C2; assay type: cell-based, Rat
Description: Acridine Orange (Sigma Aldrich), a weak base which accumulates in acidic organelles, was used to label the lysosomes. After treatments, cells were incubated with 5 μM AO for 10 min at 37° C. and washed twice with PBS. Red fluorescence (corresponding to acidic vesicles staining) was measured using a Varioskan Flash Multimode Microplate Reader with excitation/emission at 480/630 nm. Representative pictures were taken with an epifluorescence microscope (DM600 microscope, Leica).
Lysosomal acidification was measured in H9C2 and NRVMs loaded with 2 μM LysoSensor yellow/blue DND-160 (Invitrogen) for 15 min at 37° C. The LysoSensor dye is a ratiometric probe that produces yellow fluorescence in acidic environments, but changes to blue fluorescence in neutral environments. pH calibration was performed following the protocol established by Diwu et al. (Chem Biol. (1999); 6(7):411-418). Briefly, cells were incubated in MES buffer (5 mMNaCl, 115 mMKCl, 1.3 mM MgSO 4, 25 mM MES) supplemented with 10 μM nigericin and 10 μM monensin, for 10 min, with pH adjusted to a range from 3 to 7. The samples were read in a Varioskan Flash Multimode Microplate Reader with excitation at 360 nm. The ratio of emission 440/540 nm was then calculated for each sample.

LC3-II and p62 = test: Western blot of autophagy markers LC3-II and p62 in H9C2; assay type: cell-based, Rat; conditions: H9C2, Baf A1 treatment alone
Description: H9C2 or NRVMs extracts were prepared by lysing in RIPA buffer (50 mM Tris pH 7.2, 500 mM NaCl, 1% Triton X-100, 1 mM EDTA, 100 mM sodium fluoride, 5 mM sodium metavanadate, 10 mM sodium pyrophosphate) and equal protein amounts were subjected to sodium dodecyl sulfate-polyacrylamide gel electrophoresis (SDS-PAGE) in 10-15% gels depending upon protein molecular weight. After electrophoresis, proteins were transferred to nitrocellulose membranes and incubated with the following antibodies: anti-GAPDH, anti-LC3B, anti-cleaved caspase 3, anti-p-p53 from Cell Signaling Technology, anti-p62 from Abnova, anti-Lamp1, anti-cathepsin D from Abcam. Proteins were detected by chemiluminescence with a Bio-Rad ChemiDoc XRS camera. Relative densities were quantified using the ImageLab 5.2.1 software (Bio-Rad). All data were normalized by internal controls.

[3] = tested on: neonatal rat ventricular myocytes (NRVMs); test: Lysosomal pH (Acridine Orange, Lysosensor) in NRVMs; assay type: cell-based; conditions: doxorubicin 250 nM alone
Description: Rat H9C2 cardiomyoblasts (American Type Culture Collection, Rockville, U.S.A.) were grown in DMEM media containing 10% heat-inactivated FBS under 5% CO2 and 95% air at 37° C. H9C2 serve as an animal-free alternative sharing many physiological properties of primary cardiac cells. For neonatal rat ventricular myocytes (NRVMs), rats of 1-2 days old were euthanized and hearts were excised before the atria were removed. Primary culture of NRVMs was subsequently performed as previously described (Manzella et al. 2018; Aging Cell 17(5):e12811). NRVMs were grown in Ham-F12 medium containing 10% heat-inactivated FBS and 10% heat-inactivated HS under 5% CO2 and 95% air at 37° C. […]
Acridine Orange (Sigma Aldrich), a weak base which accumulates in acidic organelles, was used to label the lysosomes. […] Red fluorescence (corresponding to acidic vesicles staining) was measured using a Varioskan Flash Multimode Microplate Reader with excitation/emission at 480/630 nm. […]
Lysosomal acidification was measured in H9C2 and NRVMs loaded with 2 μM LysoSensor yellow/blue DND-160 (Invitrogen) for 15 min at 37° C. The LysoSensor dye is a ratiometric probe that produces yellow fluorescence in acidic environments, but changes to blue fluorescence in neutral environments. pH calibration was performed following the protocol established by Diwu et al. (Chem Biol. (1999); 6(7):411-418). […]

H9C2 cells [4] = test: Cellular ROS (DCFDA) in H9C2; assay type: cell-based, Rat; conditions: H9C2, 10 h after doxorubicin 1 μM alone
Description: (§1) Cellular ROS were measured using the fluorescent probe DCFDA assay at a concentration of 5 μM (ThermoFisher Scientific). Fluorescence was quantified using a fluorimeter TECAN infinite proF200 with excitation/emission at 500/530 nm. Mitochondrial ROS were measured by mitoSOX probe (Invitrogen, Molecular Probes). Briefly, the cells were loaded with mitoSOX probe at a final concentration of 5 μM and incubated for 30 min after the indicated treatments. Cells were resuspended in HBSS before reading in Tecan plate reader.

[5] = tested on: neonatal rat ventricular myocytes (NRVMs); test: Cell death / toxicity (LDH release) in NRVMs; assay type: cell-based; conditions: doxorubicin 1 μM alone
Description: Rat H9C2 cardiomyoblasts (American Type Culture Collection, Rockville, U.S.A.) were grown in DMEM media containing 10% heat-inactivated FBS under 5% CO2 and 95% air at 37° C. H9C2 serve as an animal-free alternative sharing many physiological properties of primary cardiac cells. For neonatal rat ventricular myocytes (NRVMs), rats of 1-2 days old were euthanized and hearts were excised before the atria were removed. Primary culture of NRVMs was subsequently performed as previously described (Manzella et al. 2018; Aging Cell 17(5):e12811). NRVMs were grown in Ham-F12 medium containing 10% heat-inactivated FBS and 10% heat-inactivated HS under 5% CO2 and 95% air at 37° C. Plasmid transfections with GFP-LC3, GFP-RFP-LC3 or RFP-LAMP1 constructs (Addgene) were performed using Lipofectamine 2000 reagent (Life Technologies) in Opti-MEM™ transfection medium (Gibco). […]
For quantitative assessment of cardiomyocyte necrosis, LDH release in culture medium was measured using the LDH cytotoxicity assay kit according to the manufacturer's instructions (Biovision). Apoptosis was measured in NRVMs by caspase-3 activation using a commercial kit (Biotium) according to the manufacturer's instructions.

[6] = tested on: neonatal rat ventricular myocytes (NRVMs); test: Mitochondrial ROS (mitoSOX) in NRVMs; assay type: cell-based; conditions: doxorubicin 250 nM alone
Description: as §1

H9C2 cells [7] = test: Mitochondrial membrane potential (JC-1 probe) in H9C2; assay type: cell-based, Rat; conditions: H9C2, 10 h after doxorubicin 1 μM alone
Description: The mitochondrial membrane potential was evaluated using JC-1 probe (ThermoFisher Scientific). Before the end of treatments, cells were loaded with JC-1 probe at a concentration of 5 μg/ml for 10 min at 37° C. Then, medium was replaced by HBSS and the fluorescence was recorded at 535 nm (excitation wavelength, emission at 590 nm) to measure the formation of red aggregates and at 485 (excitation wavelength, emission at 530 nm) to measure the presence of green monomers, using a fluorimeter TECAN infinite pro F200. Representative images were taken with an epifluorescence microscope (DM600 microscope, Leica).

[8] = H9C2, Bafilomycin A1 100 nM alone

SMILES | autophagic flux, tandem RFP-GFP-LC3 reporter (H9C2 cells [1]; H9C2, Baf A1 alone) | autophagosomes in GFP-LC3-transduced cells (H9C2 cells [1]; H9C2, Baf A1 treatment alone) | Acridine Orange red puncta (lysosomal acidification) (H9C2 cells [2]; [8]) | lysosomal pH (Lysosensor) (H9C2 cells [2]; [8]) | LC3-II and p62 protein levels (LC3-II and p62) | duration of A.O. red fluorescence alteration [3] | A.O. red fluorescence ([3]; 24 h) | autolysosomes (AL), GFP-RFP-LC3 reporter (H9C2 cells [1]; H9C2, doxorubicin 1 μM alone) | number of autophagosomes (AP), GFP-RFP-LC3 reporter (H9C2 cells [1]; H9C2, doxorubicin 1 μM alone) | oxidative stress (ROS, DCFDA) (H9C2 cells [4]) | AO red fluorescence (H9C2 cells [2]; H9C2, doxorubicin 1 μM alone) | lysosomal pH (lysosensor blue/yellow ratio) (H9C2 cells [2]; H9C2, doxorubicin 1 μM alone) | cell death at the dose used in prior experiments [5] | mitochondrial ROS (mitoSOX) [6] | mitochondrial membrane potential (JC-1) (H9C2 cells [7])
CO/C1=C\C(C)=C\[C@@H](C)[C@@H](O)[C@@H](C)C/C(C)=C/C=C/[C@H](OC)[C@@H]([C@@H](C)[C@@H](O)[C@H](C)[C@@]2(O)C[C@@H](O)[C@H](C)[C@@H](C(C)C)O2)OC1=O [Baf A1, Bafilomycin A1] | accumulation of red+green autophagosomes (AP) and to the reduction of red-only autolysosomes | accumulation of autophagosomes (AP) | loss of Acridine Orange (AO) red puncta | rise in lysosomal pH | increased LC3-II and p62 protein levels |  |  |  |  |  |  |  |  |  | 
COc1cccc2c1C(=O)c1c(O)c3c(c(O)c1C2=O)C[C@@](O)(C(=O)CO)C[C@@H]3O[C@H]1C[C@H](N)[C@H](O)[C@H](C)O1 [doxorubicin] |  |  |  |  |  | maintained until 40 h | decrease in A.O. red fluorescence | accumulation of autolysosomes (AL) | remained unchanged | accumulation of oxidative stress | significantly decreased AO red fluorescence | increased lysosomal pH | rapid cell death in only 24 hours | mitochondrial ROS increase | drop in mitochondrial membrane potential
